Experiment [1] concerns the target T1, Zinc finger and BTB domain-containing protein 16 (Homo sapiens, UniProt Q05516).
T1 sequence (Q05516 whole entry): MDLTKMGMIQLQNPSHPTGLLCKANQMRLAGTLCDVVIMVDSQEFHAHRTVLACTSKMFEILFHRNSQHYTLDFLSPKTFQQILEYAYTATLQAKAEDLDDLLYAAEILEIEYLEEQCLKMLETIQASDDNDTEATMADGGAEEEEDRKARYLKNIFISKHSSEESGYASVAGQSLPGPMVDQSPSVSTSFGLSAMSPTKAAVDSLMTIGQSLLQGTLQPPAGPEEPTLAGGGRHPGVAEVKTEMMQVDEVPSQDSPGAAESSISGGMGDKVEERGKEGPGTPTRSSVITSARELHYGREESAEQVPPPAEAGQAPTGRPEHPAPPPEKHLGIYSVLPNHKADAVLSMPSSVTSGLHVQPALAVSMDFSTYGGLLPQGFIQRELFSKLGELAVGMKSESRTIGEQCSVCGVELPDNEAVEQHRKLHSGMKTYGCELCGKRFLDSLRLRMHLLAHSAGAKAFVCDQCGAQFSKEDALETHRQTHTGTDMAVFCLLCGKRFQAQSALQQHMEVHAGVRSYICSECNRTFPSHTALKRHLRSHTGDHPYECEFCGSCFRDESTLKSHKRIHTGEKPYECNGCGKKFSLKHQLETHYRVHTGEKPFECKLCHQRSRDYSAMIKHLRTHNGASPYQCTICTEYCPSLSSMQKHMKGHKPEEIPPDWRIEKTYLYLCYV
Kind of experiment: (§1) Inhibition of GAL4 DNA binding domain fused PLZF BTB domain (unknown origin) expressed in HEK 293T/17 cells after 24 hrs by Bright-Glo luciferase cell reporter assay. (In general: A reporter such as luciferase makes a cellular process visible.)

Experiment [2] deals with T1, Zinc finger and BTB domain-containing protein 16. The experiment can be described thus: ChEBML_1665992.
Text: as §1

The IC50 is the point on the concentration scale where inhibition reaches its midpoint. Lower therefore signals inhibition by little substance.

As for `O=C1CCc2cc3cc(c2N1Cc1ccccc1)OC/C=C/CO[C@H]1C[C@@H](CO)N(C1)c1cc(n2ncc(Cl)c2n1)N3`, the IC50 in experiment [1] is more than 30 µM.

In experiment [2], `N#Cc1cnn2c3cc(nc12)N1C[C@H](C[C@H]1CO)OC/C=C/COc1cc(cc2c1NC(=O)CC2)N3` returned a half-inhibitory concentration (IC50) of more than 30 µM. In the case of `CN1C(=O)CCc2cc3cc(c21)OC/C=C/CO[C@H]1C[C@@H](CO)N(C1)c1cc(n2ncc(Cl)c2n1)N3`, the IC50 in experiment [1] is more than 30 µM.

Take `O=C1CCc2cc3cc(c2N1CC1CC1)OC/C=C/CO[C@H]1C[C@@H](CO)N(C1)c1cc(n2ncc(Cl)c2n1)N3`: the IC50 in experiment [1] was more than 30 µM. For `O=C(O)C[C@@H]1C[C@H]2CN1c1cc(n3ncc(Cl)c3n1)Nc1cc3c(c(c1)OC/C=C/CO2)N(CC1CC(F)(F)C1)C(=O)CC3`, the concentration for half-maximal inhibition (IC50) in experiment [1] was more than 30 µM. `O=C1CCc2cc3cc(c2N1CCCN1CCOCC1)OC/C=C/CO[C@H]1C[C@@H](CO)N(C1)c1cc(n2ncc(Cl)c2n1)N3` came in with a half-maximal inhibitory concentration (IC50) in experiment [1] of more than 30 µM. Regarding `COc1cccc(CN2C(=O)CCc3cc4cc(c32)OC/C=C/CO[C@H]2C[C@@H](CO)N(C2)c2cc(n3ncc(C#N)c3n2)N4)c1`, the IC50 in experiment [1] was more than 30 µM. `Cc1ccccc1CN1C(=O)CCc2cc3cc(c21)OC/C=C/CO[C@H]1C[C@@H](CO)N(C1)c1cc(n2ncc(Cl)c2n1)N3`: in experiment [1], the 50% inhibitory concentration (IC50) was more than 30 µM. `Cc1ccc(CN2C(=O)CCc3cc4cc(c32)OC/C=C/CO[C@H]2C[C@@H](CO)N(C2)c2cc(n3ncc(Cl)c3n2)N4)cc1` had an IC50 in experiment [1] of more than 30 µM.

In the case of `O=C1CCc2cc3cc(c2N1Cc1ccncc1)OC/C=C/CO[C@H]1C[C@@H](CO)N(C1)c1cc(n2ncc(Cl)c2n1)N3`, the half-maximal inhibitory concentration (IC50) in experiment [1] was more than 30 µM. In the case of `O=C1CCc2cc3cc(c2N1CC1CC(F)(F)C1)OC/C=C/CO[C@H]1C[C@@H](CO)N(C1)c1cc(n2ncc(Cl)c2n1)N3`, the IC50 in experiment [1] is more than 30 µM.

As to `COc1cccc(CN2C(=O)CCc3cc4cc(c32)OC/C=C/CO[C@H]2C[C@@H](CO)N(C2)c2cc(n3ncc(Cl)c3n2)N4)c1`, in experiment [1], the IC50 is more than 30 µM.

Take `O=C1CCc2cc3cc(c2N1)OCCCCO[C@H]1C[C@@H](CO)N(C1)c1cc(n2nccc2n1)N3`: in experiment [1], the IC50 is more than 30 µM. Molecule `N#Cc1cnn2c3cc(nc12)N1C[C@H](C[C@H]1CO)OCCCCOc1cc(cc2c1NC(=O)CC2)N3` returned an IC50 in experiment [1] of more than 30 µM. For `N#Cc1cnn2c3cc(nc12)N1CC[C@@H](C1)OCCCCOc1cc(cc2c1NC(=O)CC2)N3`, in experiment [1], the IC50 is more than 30 µM. The same measure, in the same setting: the value for `O=C1CCc2cc3cc(c2N1)OCCCCO[C@H]1C[C@@H](CO)N(C1)c1cc(n2ncc(Cl)c2n1)N3` was more than 30 µM. Same read-out and setting: the value for `O=C1CCc2cc3cc(c2N1)OC/C=C/CO[C@H]1C[C@@H](CO)N(C1)c1cc(n2ncc(Cl)c2n1)N3` was more than 30 µM.

The record behind these values is BindingDB's records for doi:10.1021/acs.jmedchem.7b00359 (AstraZeneca, 2017).
